Tests used:
CMML patients = details: 10 CMML patients, 45mg/m^2 of ATRA daily; cited from earlier work
[1] = system: NRAS^Q61R/+ and NRAS^Q61R/+/MALAT1^KO/KO transplanted mice; assay: ATRA treatment of primary transplants from NRAS Q61R/+ GEM model of CMML; assay type: in vivo; details: ATRA intraperitoneally
Source text: To validate the differentiation effect in vivo primary transplants were generated from NRAS^Q61R/+/MALAT1^KO/KO and NRAS^Q61R/+ followed by treatment with ATRA. […] Differentiation syndrome is a treatable but potentially fatal complication of approved therapies which induce differentiation in myeloid neoplasms hallmarked by increases in myeloid cell adhesion, invasion, and ultimately lung infiltration. There was a higher proportion of terminally differentiated cells in the lungs of NRAS^Q61R/+/MALAT1^KO/KO mice compared to controls (FIG. 8B). Further, MALAT1 depleted THP-1 cells had increased adhesion and endothelial migration compared to controls consist with an increased potential for differentiation syndrome (FIG. 8C).

[2] = system: acute promyelocytic leukemia (APL); details: ATRA based therapy in APL; cited from earlier work
THP-1 xenografts = assay: THP-1 MALAT1 KO / WT xenografts treated with ATRA; assay type: in vivo, mice
Source text: Multiple MALAT1 depleted THP-1 leukemia cell line clones have been generated utilizing dual sgRNA-targeted CRISPR technology and partnered with IONIS pharmaceuticals to test clinical grade MALAT1 ASOs in a panel of cell lines. These reagents were used to evaluate the effects of MALAT1 depletion on the above cellular processes to include proliferation, cell cycle, and differentiation. […] Additionally, these models were used to test the impact of MALAT1 depletion on normal and leukemic stem cell self-renewal capacity as well as rigorously interrogated the numbers of hematopoietic stem and progenitor cells upon MALAT1 depletion. Leukemia human cell line xenograft models were used to test the in vivo consequence of MALAT1 depletion with the above CRISPR generated clones.
Differentiation syndrome is a common serious adverse event in human leukemia patients treated with differentiating agents. It is primarily characterized by an inflammatory reaction often a result of differentiated myeloid cells accumulating in target organs, especially the lungs.

THP-1 cells = assay: Differentiation of THP-1 MALAT1 CRISPR KO cells (CD11b/CD14); assay type: cell-based, human; details: MALAT1 depleted THP-1 versus control; ATRA 1 μM for 96 h (FIG. 7C)
Source text: To confirm that MALAT1 depletion could induce differentiation in human models of leukemia, MALAT1's major transcriptional start site was deleted via CRISPR/Cas9 as previously described in several single cell derived clones of the THP-1 cell line. THP-1 cells were chosen because they were derived from a patient with acute monocytic leukemia, they harbor an NRAS mutation, and they had the highest levels of MALAT1 in our screen of myeloid cell lines.

[3] = system: myelomonocytic leukemia cell lines; assay: Apoptosis in myelomonocytic leukemia cell lines; assay type: cell-based, human
human leukemic cells = assay: Differentiation markers CD11b and CD14 by flow cytometry in human leukemic cells; assay type: cell-based; details: stimulated cells, MALAT1 depleted versus control cells

In the case of CC1=C(/C=C/C(C)=C/C=C/C(C)=C/C(=O)O)C(C)(C)CCC1 [ATRA, all-trans retinoic acid], the “patients who developed differentiation syndrome” value (CMML patients) is listed as 2 patients, the “patients who succumbed to differentiation syndrome” value (CMML patients) is listed as 1 patients and the “patients with improvement in transfusion requirements” value (CMML patients) is listed as “four”. The “differentiation markers (Gr-1/Mac-1)” value [1] was “statistically significant differences”, the cure rates [2] was roughly 95% and the differentiation syndrome (THP-1 xenografts; ATRA treated MALAT1 KO NSG xenografts, FIG. 1) was “evidence of differentiation syndrome”. For the same molecule, the “survival of xenografted mice” value (THP-1 xenografts; MALAT1 depleted xenografts treated with ATRA, pilot experiment) was “succumbed one-week post-ATRA therapy”, the “survival of xenografted mice” value (THP-1 xenografts; WT xenografts treated with ATRA) was “remained unaffected” and the “response of differentiation markers” value (THP-1 cells) was “more robust response”. For the same molecule, the dose-dependent apoptosis ([3]; ATRA alone) was “did not cause a robust dose-dependent apoptosis”, the apoptosis ([3]; ATRA in combination with MALAT1 depletion) was “induced apoptosis in a dose-dependent manner” and the “induction of apoptosis following ATRA treatment” value ([3]; FIG. 2, ATRA treatment) was “minimal induction of apoptosis”. For the same molecule, the “differentiation markers CD11b and CD14 by flow cytometry upon stimulation” value (human leukemic cells) was “enhanced”.
In the case of CCCCCCCCCCCCCC(=O)O[C@@H]1[C@@H](C)[C@@]2(O)[C@@H](C=C(CO)C[C@]3(O)C(=O)C(C)=C[C@@H]23)[C@@H]2C(C)(C)[C@]12OC(C)=O [PMA, phorbol myristate acetate], the “response of differentiation markers” value (THP-1 cells) is reported as “more robust response” and the “differentiation markers CD11b and CD14 by flow cytometry upon stimulation” value (human leukemic cells) is reported as “enhanced”.

Reference: patent publication US12668797B2, “Compositions and methods for treating chronic myelomonocytic leukemia” (H. Lee Moffitt Cancer Center and Research Institute, Inc., priority 2019, dated 2026)
